The values below come from patent US9533977B2, “Oxazolidinone derivative as CETP inhibitor, its preparation method, and pharmaceutical composition comprising the same” (DONG-A ST CO., LTD., priority 2013, dated 2017).

For one data set, the system named is Blood HDL-C. Kind of data set: Blood HDL-C level in multi-dosed hamsters. It is filed as in vivo, Golden Syrian Hamsters. Particulars: oral 10 mg/kg every day for two weeks, blood two hours after the final administration. The procedure:
(§1) Each of the compounds of Examples 58, 96, 103 and 125 was orally administered at a dose of 10 mg/kg to 10 7-week-old male Golden Syrian Hamsters per group, every day for two weeks. Two hours after the final administration, blood samples were taken from the hamsters which then underwent an autopsy to analyze blood lipid levels and drug concentrations in blood and tissues (adipose tissues and liver)

Data set [1] has as its system CETP. Kind of data set: Effect on CETP activity in hamster administered with single dose. It is filed as in vivo, Golden Syrian hamsters. Particulars: hamsters, single oral dose 100 mg/kg, blood 0.5-24 hrs after administration, compared to pre-treatment. Here is the method:
Each of the compounds of the Examples was orally administered at a dose of 100 mg/kg to three 7-week-old male Golden Syrian hamsters per group. Blood samples were taken from the retro-orbital plexus before administration and 0.5, 1, 2, 4, 6, 8, and 24 hrs after administration, and measured for blood CETP activity using a Roar CETP activity assay kit (Cat#: RB-CETP, Roar Biomedical Inc.).

Data set [2] in a line: Drug concentration in blood and tissues of hamsters administered with multiple doses. It is filed as in vivo, Golden Syrian Hamsters. Conditions: oral 10 mg/kg every day for two weeks; for concentration at 2 h: male, Golden Syrian, hamster, two hours after the final administration. The procedure:
as §1

Data set [3] deals with T1, CETP (Homo sapiens, UniProt P11597).
T1 construct: from tissue; host or cells: human plasma from healthy men
T1 sequence (P11597 18-493): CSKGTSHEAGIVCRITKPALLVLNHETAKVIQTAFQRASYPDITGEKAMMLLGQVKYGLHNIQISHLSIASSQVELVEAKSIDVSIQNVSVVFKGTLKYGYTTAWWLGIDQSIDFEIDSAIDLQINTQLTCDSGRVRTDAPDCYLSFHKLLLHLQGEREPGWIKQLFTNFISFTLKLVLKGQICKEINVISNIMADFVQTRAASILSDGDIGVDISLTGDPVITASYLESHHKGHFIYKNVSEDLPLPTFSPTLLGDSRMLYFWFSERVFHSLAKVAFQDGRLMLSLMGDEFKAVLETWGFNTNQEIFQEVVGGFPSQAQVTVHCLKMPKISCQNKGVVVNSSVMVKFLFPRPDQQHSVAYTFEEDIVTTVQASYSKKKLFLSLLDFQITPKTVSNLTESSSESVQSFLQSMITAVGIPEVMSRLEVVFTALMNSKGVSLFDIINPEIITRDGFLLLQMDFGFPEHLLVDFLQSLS
As to the kind of experiment: Inhibitory activity against CETP in human plasma (Roar CETP activity kit, fluorescence). It is filed as biochemical. Conditions: plasma from healthy men diluted 1:10 in assay buffer, 37° C., 3 hrs, fluorescence 465/535 nm; read-out: IC50, Inhibition of CETP Activity in Human Plasma. A digest of the protocol:
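Healthy male human plasma, diluted 1:10, incubated 3 hrs at 37° C with donor/acceptor fluorescent substrates and compound (0.01–10000 nM, DMSO). Fluorescence at ex 465/em 535 nm, background-corrected against no-plasma and no-compound wells; IC50 from sigmoidal fit.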

Setting [4] is: adipose tissue, read-out: Drug Concentration Adipose Tissue.
Where [5] appears, read: blood, read-out: Drug Concentration Blood.
The mark [6] stands for this setting: liver, read-out: Drug Concentration Liver Tissue.

The structures appear in SMILES notation. Read-outs that look alike come from different tables or passages of the source.

Consider `CCN(c1ncc(-c2c(C)noc2C)cc1CN1C(=O)O[C@H](c2cc(C(F)(F)F)cc(C(F)(F)F)c2)[C@@H]1C)C1CCCCC1` [Example 58, (4S,5R)-5-[3,5-bis(trifluoromethyl)phenyl]-4-methyl-3-({[2-(ethyl)(cyclohexyl)amino]-5-(3,5-dimethylisoxazol-4-yl)pyridin-3-yl}methyl)-oxazoliclin-2-one], for which the “Relative Increase HDL-C (%) to VC (Vehicle)” value (shortened to “Relative Increase HDL-C (%)”) in the data set with Blood HDL-C was determined as 47%. The “Relative Maximal Inhibition of CETP Activity to Pre-Administration (%)” value (“Relative Maximal Inhibition … (%)” below) in the data set on CETP [1] is reported as 55%. For the same molecule, the concentration at 2 h in data set [2] (setting [4]) turned out to be 10200 ng/g; in data set [2] (setting [5]) it was 606 ng/mL; in data set [2] (setting [6]) it was 415 ng/g. Moreover, the “Distribution between blood, liver and adipose tissues (in words)” value in data set [2] was “at low levels in blood and liver tissues, but at high levels in adipose tissues”. For the same molecule, on CETP [3], the IC50 is 2.7 nM.

Turning to `CCN(c1ncc(-c2c(C)noc2C)nc1CN1C(=O)O[C@H](c2cc(C(F)(F)F)cc(C(F)(F)F)c2)[C@@H]1C)C1CCCCC1` [Example 96, (4S,5R)-5-[3,5-bis(trifluoromethyl)phenyl]-4-methyl-3-({[2-(ethyl)(cyclohexyl)amino]-5-(3,5-dimethyl-isoxazol-4-yl)pyrazin-3-yl}methyl)-oxazolidin-2-one], the “Relative Increase HDL-C (%)” value in the data set on Blood HDL-C turned out to be 48%. Also, the “Relative Maximal Inhibition … (%)” value with CETP [1] is 56%. Also, the concentration at 2 h in data set [2] (setting [4]) stood at 7900 ng/g; in data set [2] (setting [5]), 309 ng/mL; in data set [2] (setting [6]), 128 ng/g. In data set [2], the “Distribution between blood, liver and adipose tissues (in words)” value was “at low levels in blood and liver tissues, but at high levels in adipose tissues”. Also, the IC50 on CETP [3] stood at 2 nM.

Consider `CCN(C[C@H]1CC[C@H](CC(=O)O)CC1)c1ncc(N2CCCC2)nc1CN1C(=O)OC(c2cc(C(F)(F)F)cc(C(F)(F)F)c2)[C@@H]1C` (some centres unmarked) [Example 103], for which the “Relative Increase HDL-C (%)” value with Blood HDL-C amounted to 47%. For the same molecule, the “Relative Maximal Inhibition … (%)” value in the data set with CETP [1] came to 52%. Further, the IC50 on CETP [3] was determined as 3.26 nM.

Consider `CCCN(CC1CCC(CC(=O)O)CC1)c1ncc(C2CC2)nc1CN1C(=O)OC(c2cc(C(F)(F)F)cc(C(F)(F)F)c2)C1C` (centres unmarked) [Example 125], for which the “Relative Increase HDL-C (%)” value with Blood HDL-C is 27%. Besides, the “Relative Maximal Inhibition … (%)” value with CETP [1] was found to be 56%. In addition, at CETP [3], the IC50 stood at 40.3 nM.
